In US20120190752A1, “EXO-S-MECAMYLAMINE METHOD, USE, AND COMPOUND FOR TREATMENT” (Targacept Inc., priority 2009, published 2012):

Test system: subjects with major depressive disorder (MDD) who were inadequate responders to citalopram
Assay: HAMD-17 total score, Phase 2b trial of TC-5214 as add-on to citalopram
Type: in vivo, human
Details: for HAMD-17 total score, observed Mean / HAMD-17 total score, observed Median / HAMD-17 Remission (Score ≦7): Subjects with Remission (number) / HAMD-17 Remission (Score ≦7): Subjects with Remission (percentage) / HAMD-17 Remission (Score ≦7): Subjects without Remission (number) / HAMD-17 Remission (Score ≦7): Subjects without Remission (percentage) / HAMD-17 Remission (Score ≦10): Subjects with Remission (number) / HAMD-17 Remission (Score ≦10): Subjects with Remission (percentage) / HAMD-17 Remission (Score ≦10): Subjects without Remission (number) / HAMD-17 Remission (Score ≦10): Subjects without Remission (percentage) / HAMD-17 reduction from baseline ≧50%: Subjects with Response (number) / HAMD-17 reduction from baseline ≧50%: Subjects with Response (percentage) / HAMD-17 reduction from baseline ≧50%: Subjects without Response (number) / HAMD-17 reduction from baseline ≧50%: Subjects without Response (percentage) / HAMD-17 Adjusted Mean change / HAMD-17 Mean Difference between TC-5214 and Placebo: PP; for primary outcome: mean change between TC-5214 and placebo from baseline on HAM-D (HAMD-17 total score): intent to treat, Week 8 to Week 16 LOCF, result in words
Description: The Hamilton Rating Scale for Depression (HRSD), also known as the Hamilton Depression Rating Scale (HDRS) or abbreviated to HAM-D or HAMD, is a multiple choice questionnaire that clinicians may use to rate the severity of a patient's major depression (Hamilton 1967). The questionnaire rates the severity of symptoms observed in depression such as low mood, insomnia, agitation, anxiety and weight loss. The questionnaire is presently one of the most commonly used scales for rating depression in medical research. The clinician chooses the possible responses to each question by interviewing the patient and by observing the patient's symptoms. Each question has multiple possible responses which increase in severity. Although Hamilton's original scale had 17 questions, others later developed HRSD scales with different numbers of questions, the greatest of which is 29 (HRSD-29). Clinicians can use the HRSD in place of, or in conjunction with, the Montgomery-Åsberg Depression Rating Scale (MADRS), the Beck Depression Inventory (BDI), the Zung Self-Rating Depression Scale, the Wechsler Depression Rating Scale, the […] Depression Rating Scale, the Inventory of Depressive Symptomatology (IDS), the Quick Inventory of Depressive Symptomatology (QIDS), and other questionnaires. […] The results on all of the trial's secondary efficacy measures, including assessments of depression, irritability, disability, cognition, severity of illness and global improvement, were also statistically significant in favor of TC-5214 on an intent to treat basis. The Phase 2b trial of TC-5214 as an augmentation treatment for MDD was a two-phase trial conducted at 20 sites in India and three sites in the United States. In the first phase, 579 subjects with MDD received first-line treatment with citalopram hydrobromide for eight weeks, 20 mg daily for the first four weeks and 40 mg daily for the next four weeks. Citalopram, an approved treatment for MDD marketed in the United States as […]®, is from the drug class known as selective serotonin reuptake inhibitors. At the end of the eight weeks, subjects whose MADRS score had improved less than 50 percent and whose CGI-SI score was no lower than 4 were considered partial or non responders and randomized into the double blind second phase of the trial. In the double blind second phase, subjects continued their citalopram treatment and also received either add-on TC-5214 or add-on placebo for an additional eight weeks. The daily dosage of TC-5214 was initially 2 mg and could be increased at the discretion of the investigator to 4 mg and to 8 mg based on tolerability and therapeutic response. The primary outcome measure for the trial was mean change between TC-5214 and placebo from double blind baseline as measured by HAM-D at week 16. The intent to treat dataset included 265 subjects in the second phase. In more detail, a multi-center double-blind, randomized, placebo-controlled, parallel group, flexible dose titration study of TC-5214 as adjunctive therapy in subjects with major depressive disorder (MDD) who were inadequate responders to citalopram was conducted in centers in the US and India. The study consisted of a screening period, baseline/washout period, open-label phase, double-blind phase, and a follow-up visit. Subject participation in the study could continue for up to 16 weeks of treatment. Following a washout period of up to 28 days for other antidepressants, subjects with MDD and a MADRS total score >/=28 and a Clinical Global Impression-Severity (CGI-S) score >/=4 were enrolled on Day 1 into an open-label citalopram-only phase of the study. This phase lasted 8 weeks, with citalopram (CIT) dose increased from a once-daily dose of 20 mg (Day 1 through Week 4) to 40 mg (Week 4 through Week 8). A total of 579 subjects entered the open-label citalopram phase. […]

[1] = Double Blind Week 8 (Baseline), before TC-5214
[2] = Double Blind Week 16 LOCF (change from Week 8)
[3] = Double Blind Week 18 (Follow-up)
[4] = Double Blind Week 18 LOCF (Follow-up)
[5] = Double Blind Week 18 LOCF (Follow-up), change from Week 16

SMILES: CNC1(C)C2CCC(C2)C1(C)C (stereo in doubt) [TC-5214, (S)—N,2,3,3-tetramethylnorbornan-2-amine]
- HAMD-17 Adj. Mean change (ITT, change from Week 8 (double-blind baseline) to Week 16 LOCF, add-on to citalopram): −13.75
- onset of separation from placebo, remission rates HAMD≦7 (FIG. 1) (ITT, week of double-blind treatment): ≤ 2 week
- HAMD-17 total score, observed Mean [1]: 23.7
- HAMD-17 total score, observed Median [1]: 24.0
- HAMD-17 Remission (Score ≦7): Subjects with Remission (number) (Double Blind Week 9): 1
- HAMD-17 Remission (Score ≦7): Subjects with Remission (percentage) (Double Blind Week 9): (1%)
- HAMD-17 Remission (Score ≦7): Subjects without Remission (number) (Double Blind Week 9): 112
- HAMD-17 Remission (Score ≦7): Subjects without Remission (percentage) (Double Blind Week 9): (99%)
- HAMD-17 Remission (Score ≦10): Subjects with Remission (number) (Double Blind Week 9): 3
- HAMD-17 Remission (Score ≦10): Subjects with Remission (percentage) (Double Blind Week 9): (3%)
- HAMD-17 Remission (Score ≦10): Subjects without Remission (number) (Double Blind Week 9): 110
- HAMD-17 Remission (Score ≦10): Subjects without Remission (percentage) (Double Blind Week 9): (97%)
- HAMD-17 reduction from baseline ≧50%: Subjects with Response (number) (Double Blind Week 9): 3
- HAMD-17 reduction from baseline ≧50%: Subjects with Response (percentage) (Double Blind Week 9): (3%)
- HAMD-17 reduction from baseline ≧50%: Subjects without Response (number) (Double Blind Week 9): 110
- HAMD-17 reduction from baseline ≧50%: Subjects without Response (percentage) (Double Blind Week 9): (97%)
- HAMD-17 Remission (Score ≦7): Subjects with Remission (number) (Double Blind Week 10): 4
- HAMD-17 Remission (Score ≦7): Subjects with Remission (percentage) (Double Blind Week 10): (4%)
- HAMD-17 Remission (Score ≦7): Subjects without Remission (number) (Double Blind Week 10): 109
- HAMD-17 Remission (Score ≦7): Subjects without Remission (percentage) (Double Blind Week 10): (96%)
- HAMD-17 Remission (Score ≦10): Subjects with Remission (number) (Double Blind Week 10): 16
- HAMD-17 Remission (Score ≦10): Subjects with Remission (percentage) (Double Blind Week 10): (14%)
- HAMD-17 Remission (Score ≦10): Subjects without Remission (number) (Double Blind Week 10): 97
- HAMD-17 Remission (Score ≦10): Subjects without Remission (percentage) (Double Blind Week 10): (86%)
- HAMD-17 reduction from baseline ≧50%: Subjects with Response (number) (Double Blind Week 10): 20
- HAMD-17 reduction from baseline ≧50%: Subjects with Response (percentage) (Double Blind Week 10): (18%)
- HAMD-17 reduction from baseline ≧50%: Subjects without Response (number) (Double Blind Week 10): 93
- HAMD-17 reduction from baseline ≧50%: Subjects without Response (percentage) (Double Blind Week 10): (82%)
- HAMD-17 Remission (Score ≦7): Subjects with Remission (number) (Double Blind Week 12): 16
- HAMD-17 Remission (Score ≦7): Subjects with Remission (percentage) (Double Blind Week 12): (14%)
- HAMD-17 Remission (Score ≦7): Subjects without Remission (number) (Double Blind Week 12): 97
- HAMD-17 Remission (Score ≦7): Subjects without Remission (percentage) (Double Blind Week 12): (86%)
- HAMD-17 Remission (Score ≦10): Subjects with Remission (number) (Double Blind Week 12): 36
- HAMD-17 Remission (Score ≦10): Subjects with Remission (percentage) (Double Blind Week 12): (32%)
- HAMD-17 Remission (Score ≦10): Subjects without Remission (number) (Double Blind Week 12): 77
- HAMD-17 Remission (Score ≦10): Subjects without Remission (percentage) (Double Blind Week 12): (68%)
- HAMD-17 reduction from baseline ≧50%: Subjects with Response (number) (Double Blind Week 12): 40
- HAMD-17 reduction from baseline ≧50%: Subjects with Response (percentage) (Double Blind Week 12): (35%)
- HAMD-17 reduction from baseline ≧50%: Subjects without Response (number) (Double Blind Week 12): 73
- HAMD-17 reduction from baseline ≧50%: Subjects without Response (percentage) (Double Blind Week 12): (65%)
- HAMD-17 Remission (Score ≦7): Subjects with Remission (number) (Double Blind Week 14): 35
- HAMD-17 Remission (Score ≦7): Subjects with Remission (percentage) (Double Blind Week 14): (31%)
- HAMD-17 Remission (Score ≦7): Subjects without Remission (number) (Double Blind Week 14): 78
- HAMD-17 Remission (Score ≦7): Subjects without Remission (percentage) (Double Blind Week 14): (69%)
- HAMD-17 Remission (Score ≦10): Subjects with Remission (number) (Double Blind Week 14): 53
- HAMD-17 Remission (Score ≦10): Subjects with Remission (percentage) (Double Blind Week 14): (47%)
- HAMD-17 Remission (Score ≦10): Subjects without Remission (number) (Double Blind Week 14): 60
- HAMD-17 Remission (Score ≦10): Subjects without Remission (percentage) (Double Blind Week 14): (53%)
- HAMD-17 reduction from baseline ≧50%: Subjects with Response (number) (Double Blind Week 14): 67
- HAMD-17 reduction from baseline ≧50%: Subjects with Response (percentage) (Double Blind Week 14): (59%)
- HAMD-17 reduction from baseline ≧50%: Subjects without Response (number) (Double Blind Week 14): 46
- HAMD-17 reduction from baseline ≧50%: Subjects without Response (percentage) (Double Blind Week 14): (41%)
- HAMD-17 Remission (Score ≦7): Subjects with Remission (number) (Double Blind Week 16): 50
- HAMD-17 Remission (Score ≦7): Subjects with Remission (percentage) (Double Blind Week 16): (44%)
- HAMD-17 Remission (Score ≦7): Subjects without Remission (number) (Double Blind Week 16): 63
- HAMD-17 Remission (Score ≦7): Subjects without Remission (percentage) (Double Blind Week 16): (56%)
- HAMD-17 Remission (Score ≦10): Subjects with Remission (number) (Double Blind Week 16): 75
- HAMD-17 Remission (Score ≦10): Subjects with Remission (percentage) (Double Blind Week 16): (66%)
- HAMD-17 Remission (Score ≦10): Subjects without Remission (number) (Double Blind Week 16): 38
- HAMD-17 Remission (Score ≦10): Subjects without Remission (percentage) (Double Blind Week 16): (34%)
- HAMD-17 reduction from baseline ≧50%: Subjects with Response (number) (Double Blind Week 16): 84
- HAMD-17 reduction from baseline ≧50%: Subjects with Response (percentage) (Double Blind Week 16): (74%)
- HAMD-17 reduction from baseline ≧50%: Subjects without Response (number) (Double Blind Week 16): 29
- HAMD-17 reduction from baseline ≧50%: Subjects without Response (percentage) (Double Blind Week 16): (26%)
- HAMD-17 total score, observed Mean (Double Blind Week 16 LOCF): 9.1
- HAMD-17 total score, observed Median (Double Blind Week 16 LOCF): 8.0
- HAMD-17 Adjusted Mean change [2]: −14.64
- HAMD-17 Mean Difference between TC-5214 and Placebo [2]: 6.10
- HAMD-17 Remission (Score ≦7): Subjects with Remission (number) [3]: 58
- HAMD-17 Remission (Score ≦7): Subjects with Remission (percentage) [3]: (51%)
- HAMD-17 Remission (Score ≦7): Subjects without Remission (number) [3]: 55
- HAMD-17 Remission (Score ≦7): Subjects without Remission (percentage) [3]: (49%)
- HAMD-17 Remission (Score ≦10): Subjects with Remission (number) [3]: 77
- HAMD-17 Remission (Score ≦10): Subjects with Remission (percentage) [3]: (68%)
- HAMD-17 Remission (Score ≦10): Subjects without Remission (number) [3]: 36
- HAMD-17 Remission (Score ≦10): Subjects without Remission (percentage) [3]: (32%)
- HAMD-17 reduction from baseline ≧50%: Subjects with Response (number) [3]: 83
- HAMD-17 reduction from baseline ≧50%: Subjects with Response (percentage) [3]: (73%)
- HAMD-17 reduction from baseline ≧50%: Subjects without Response (number) [3]: 30
- HAMD-17 reduction from baseline ≧50%: Subjects without Response (percentage) [3]: (27%)
- HAMD-17 total score, observed Mean [4]: 8.6
- HAMD-17 total score, observed Median [4]: 7.0
- HAMD-17 Adjusted Mean change [5]: −0.83
- HAMD-17 Mean Difference between TC-5214 and Placebo [5]: −0.01
- primary outcome: mean change between TC-5214 and placebo from baseline on HAM-D (HAMD-17 total score): highly statistically significant in favor of TC-5214
- primary outcome: mean change between TC-5214 and placebo from baseline on HAM-D (HAMD-17 total score) (listed as TC-5214-23): statistically significant favoring TC-5214-23
